What was measured:
Assay in all cases: biochemical
Assay type in all cases: binding
[1] = target: T1, panel of 442 kinases (Homo sapiens, UniProt P21709); conditions: EPHA1; for remaining activity at 1 µM: read-out: % of control at 1 µM
T1 construct: purchased Ambit Biosciences (scanMAXX KINOMEscan)
T1 sequence (P21709 26-976): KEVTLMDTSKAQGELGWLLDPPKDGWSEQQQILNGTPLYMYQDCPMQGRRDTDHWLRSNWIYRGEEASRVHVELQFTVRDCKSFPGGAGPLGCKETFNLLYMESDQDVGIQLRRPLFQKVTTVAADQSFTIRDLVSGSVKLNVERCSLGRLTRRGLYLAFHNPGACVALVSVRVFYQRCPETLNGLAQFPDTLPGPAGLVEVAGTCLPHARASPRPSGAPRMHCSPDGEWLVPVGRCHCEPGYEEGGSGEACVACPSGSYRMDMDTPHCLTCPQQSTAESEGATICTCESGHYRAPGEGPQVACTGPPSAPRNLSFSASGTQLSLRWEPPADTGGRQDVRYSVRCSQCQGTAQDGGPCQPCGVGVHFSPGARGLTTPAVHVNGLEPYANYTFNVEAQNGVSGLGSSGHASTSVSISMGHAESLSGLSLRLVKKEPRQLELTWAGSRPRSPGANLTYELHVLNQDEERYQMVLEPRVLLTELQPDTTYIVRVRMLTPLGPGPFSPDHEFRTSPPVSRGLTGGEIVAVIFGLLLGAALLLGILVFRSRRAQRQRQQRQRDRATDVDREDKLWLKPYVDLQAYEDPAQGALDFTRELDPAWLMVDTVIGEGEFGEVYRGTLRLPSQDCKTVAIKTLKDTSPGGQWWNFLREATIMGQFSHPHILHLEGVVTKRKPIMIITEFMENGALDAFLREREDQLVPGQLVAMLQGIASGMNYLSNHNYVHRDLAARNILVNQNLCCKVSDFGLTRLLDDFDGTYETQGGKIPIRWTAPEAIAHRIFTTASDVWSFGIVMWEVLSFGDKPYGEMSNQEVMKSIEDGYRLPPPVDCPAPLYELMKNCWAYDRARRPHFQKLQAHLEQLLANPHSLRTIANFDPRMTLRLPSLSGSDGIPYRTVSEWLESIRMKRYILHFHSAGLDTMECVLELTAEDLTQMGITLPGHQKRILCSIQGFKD

[2] = target: T2, panel of 442 kinases (Homo sapiens, UniProt P29317); conditions: EPHA2; for remaining activity at 1 µM: read-out: % of control at 1 µM
T2 construct: purchased Ambit Biosciences (scanMAXX KINOMEscan)
T2 sequence (P29317 24-976): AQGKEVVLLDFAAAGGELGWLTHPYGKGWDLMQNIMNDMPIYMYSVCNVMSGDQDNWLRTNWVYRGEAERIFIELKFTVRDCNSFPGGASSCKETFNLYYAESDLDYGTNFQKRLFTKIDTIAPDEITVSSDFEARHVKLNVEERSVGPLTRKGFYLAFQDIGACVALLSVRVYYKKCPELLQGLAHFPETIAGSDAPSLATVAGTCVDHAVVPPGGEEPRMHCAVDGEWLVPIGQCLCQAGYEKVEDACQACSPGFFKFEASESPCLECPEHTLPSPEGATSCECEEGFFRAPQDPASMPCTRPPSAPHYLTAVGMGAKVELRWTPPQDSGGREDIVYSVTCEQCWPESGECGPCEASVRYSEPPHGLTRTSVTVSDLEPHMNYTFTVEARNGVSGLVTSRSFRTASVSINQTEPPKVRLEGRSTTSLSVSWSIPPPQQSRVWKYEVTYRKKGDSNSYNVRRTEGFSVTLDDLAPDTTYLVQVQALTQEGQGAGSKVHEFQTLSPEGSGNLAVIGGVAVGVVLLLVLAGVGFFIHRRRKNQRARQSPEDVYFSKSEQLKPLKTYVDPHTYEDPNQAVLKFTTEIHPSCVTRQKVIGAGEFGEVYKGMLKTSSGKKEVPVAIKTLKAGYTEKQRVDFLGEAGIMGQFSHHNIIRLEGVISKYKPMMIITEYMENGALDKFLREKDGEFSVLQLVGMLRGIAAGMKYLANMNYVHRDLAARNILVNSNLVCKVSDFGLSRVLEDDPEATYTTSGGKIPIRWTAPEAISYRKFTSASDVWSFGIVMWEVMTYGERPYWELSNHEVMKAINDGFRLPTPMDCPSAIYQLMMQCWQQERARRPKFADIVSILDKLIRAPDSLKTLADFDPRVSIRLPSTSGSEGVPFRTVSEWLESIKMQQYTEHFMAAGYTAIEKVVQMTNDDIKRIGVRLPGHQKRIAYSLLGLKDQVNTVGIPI

[3] = target: T3, panel of 442 kinases (Homo sapiens, UniProt Q9NRH2); conditions: kinase SNRK; for remaining activity at 1 µM: read-out: SNRK (% of control at 1 µM)
T3 construct: purchased Ambit Biosciences (scanMAXX KINOMEscan)
T3 sequence (Q9NRH2 1-765): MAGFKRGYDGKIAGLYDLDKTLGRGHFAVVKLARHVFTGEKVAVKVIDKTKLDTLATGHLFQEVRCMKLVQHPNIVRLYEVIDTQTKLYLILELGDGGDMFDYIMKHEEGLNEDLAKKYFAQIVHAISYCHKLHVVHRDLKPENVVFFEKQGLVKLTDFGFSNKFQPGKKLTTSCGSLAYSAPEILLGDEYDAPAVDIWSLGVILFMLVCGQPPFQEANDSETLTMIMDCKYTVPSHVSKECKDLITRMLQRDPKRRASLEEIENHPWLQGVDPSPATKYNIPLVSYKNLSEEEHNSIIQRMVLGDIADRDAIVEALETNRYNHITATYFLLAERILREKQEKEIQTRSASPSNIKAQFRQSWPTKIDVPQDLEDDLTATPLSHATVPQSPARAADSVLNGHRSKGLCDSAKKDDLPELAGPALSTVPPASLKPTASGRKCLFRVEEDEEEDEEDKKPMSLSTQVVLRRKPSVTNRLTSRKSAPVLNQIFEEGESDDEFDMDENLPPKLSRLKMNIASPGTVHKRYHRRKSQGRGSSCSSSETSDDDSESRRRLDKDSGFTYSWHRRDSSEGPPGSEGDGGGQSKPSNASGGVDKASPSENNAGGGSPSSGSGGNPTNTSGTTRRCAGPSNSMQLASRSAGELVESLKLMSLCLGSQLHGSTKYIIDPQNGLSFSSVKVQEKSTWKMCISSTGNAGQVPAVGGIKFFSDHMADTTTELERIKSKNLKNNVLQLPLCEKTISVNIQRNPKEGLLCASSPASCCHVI

[4] = target: T4, panel of 442 kinases (Homo sapiens, UniProt Q32MK0); conditions: kinase MLCK; for remaining activity at 1 µM: read-out: % of control at 1 µM
T4 construct: purchased Ambit Biosciences (scanMAXX KINOMEscan)
T4 sequence (Q32MK0 1-819): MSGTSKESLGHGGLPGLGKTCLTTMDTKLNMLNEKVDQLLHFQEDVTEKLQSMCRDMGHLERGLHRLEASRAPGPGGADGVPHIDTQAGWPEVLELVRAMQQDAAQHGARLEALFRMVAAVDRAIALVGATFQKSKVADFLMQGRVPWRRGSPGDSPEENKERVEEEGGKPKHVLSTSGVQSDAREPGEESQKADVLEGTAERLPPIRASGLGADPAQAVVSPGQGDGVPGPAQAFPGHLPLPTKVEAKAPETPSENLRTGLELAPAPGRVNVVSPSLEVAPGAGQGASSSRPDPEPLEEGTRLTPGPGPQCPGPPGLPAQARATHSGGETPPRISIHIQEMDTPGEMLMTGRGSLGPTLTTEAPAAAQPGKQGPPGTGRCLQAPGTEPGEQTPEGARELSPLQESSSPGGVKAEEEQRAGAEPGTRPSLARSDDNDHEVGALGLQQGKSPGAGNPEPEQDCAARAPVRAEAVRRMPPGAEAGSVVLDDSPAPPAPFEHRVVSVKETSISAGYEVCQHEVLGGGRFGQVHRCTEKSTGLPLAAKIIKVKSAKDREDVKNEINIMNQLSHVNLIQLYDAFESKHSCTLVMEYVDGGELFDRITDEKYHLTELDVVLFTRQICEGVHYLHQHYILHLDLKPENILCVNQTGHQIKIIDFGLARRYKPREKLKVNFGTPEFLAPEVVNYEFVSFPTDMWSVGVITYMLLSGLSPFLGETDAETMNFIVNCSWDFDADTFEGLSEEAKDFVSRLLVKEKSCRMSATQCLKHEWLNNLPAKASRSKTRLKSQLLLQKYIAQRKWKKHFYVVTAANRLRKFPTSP

[5] = target: T5, panel of 442 kinases (Homo sapiens, UniProt Q6DT37); conditions: DMPK2; for remaining activity at 1 µM: read-out: % of control at 1 µM
T5 construct: purchased Ambit Biosciences (scanMAXX KINOMEscan)
T5 sequence (Q6DT37 whole entry): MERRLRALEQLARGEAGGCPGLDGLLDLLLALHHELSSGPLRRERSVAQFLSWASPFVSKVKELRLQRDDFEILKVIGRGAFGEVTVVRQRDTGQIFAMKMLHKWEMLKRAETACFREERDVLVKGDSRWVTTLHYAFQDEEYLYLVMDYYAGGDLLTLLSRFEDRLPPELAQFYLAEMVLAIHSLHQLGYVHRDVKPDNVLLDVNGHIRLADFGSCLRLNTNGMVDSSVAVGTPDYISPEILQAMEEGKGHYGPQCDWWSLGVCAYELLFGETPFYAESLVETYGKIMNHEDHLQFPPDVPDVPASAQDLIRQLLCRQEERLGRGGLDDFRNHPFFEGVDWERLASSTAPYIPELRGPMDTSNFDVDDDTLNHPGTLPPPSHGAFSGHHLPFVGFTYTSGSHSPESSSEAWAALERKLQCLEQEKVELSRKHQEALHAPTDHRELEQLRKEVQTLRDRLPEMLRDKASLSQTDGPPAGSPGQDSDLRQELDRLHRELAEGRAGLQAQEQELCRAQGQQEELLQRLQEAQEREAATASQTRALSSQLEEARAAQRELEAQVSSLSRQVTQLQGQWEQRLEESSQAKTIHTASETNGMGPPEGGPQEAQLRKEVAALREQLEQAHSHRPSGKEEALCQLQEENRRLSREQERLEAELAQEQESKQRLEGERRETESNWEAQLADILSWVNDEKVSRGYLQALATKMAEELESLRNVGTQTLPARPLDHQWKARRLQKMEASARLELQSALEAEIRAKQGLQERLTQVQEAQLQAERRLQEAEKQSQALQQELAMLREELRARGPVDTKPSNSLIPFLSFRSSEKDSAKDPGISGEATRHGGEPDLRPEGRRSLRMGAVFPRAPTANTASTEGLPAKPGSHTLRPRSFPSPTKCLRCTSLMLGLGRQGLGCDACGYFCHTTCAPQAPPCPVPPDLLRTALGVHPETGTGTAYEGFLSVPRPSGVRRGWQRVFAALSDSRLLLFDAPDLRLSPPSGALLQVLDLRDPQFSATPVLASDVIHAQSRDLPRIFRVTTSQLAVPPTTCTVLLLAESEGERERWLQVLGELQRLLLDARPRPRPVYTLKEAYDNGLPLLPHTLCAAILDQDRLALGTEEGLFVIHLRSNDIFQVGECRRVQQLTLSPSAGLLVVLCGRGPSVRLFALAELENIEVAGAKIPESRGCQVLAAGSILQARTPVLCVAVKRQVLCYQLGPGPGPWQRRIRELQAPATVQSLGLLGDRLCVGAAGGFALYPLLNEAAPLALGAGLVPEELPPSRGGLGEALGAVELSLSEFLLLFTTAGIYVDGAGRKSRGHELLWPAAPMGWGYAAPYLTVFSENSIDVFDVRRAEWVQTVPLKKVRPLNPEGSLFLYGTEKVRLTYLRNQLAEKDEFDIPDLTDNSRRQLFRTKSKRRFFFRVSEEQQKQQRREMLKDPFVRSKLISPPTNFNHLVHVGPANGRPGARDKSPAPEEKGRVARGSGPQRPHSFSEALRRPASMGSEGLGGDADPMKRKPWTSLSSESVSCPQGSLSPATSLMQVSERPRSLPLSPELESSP

[6] = target: T6, panel of 442 kinases (Homo sapiens, UniProt Q15303); conditions: ERBB4; for remaining activity at 1 µM: read-out: % of control at 1 µM
T6 construct: purchased Ambit Biosciences (scanMAXX KINOMEscan)
T6 sequence (Q15303 26-1308): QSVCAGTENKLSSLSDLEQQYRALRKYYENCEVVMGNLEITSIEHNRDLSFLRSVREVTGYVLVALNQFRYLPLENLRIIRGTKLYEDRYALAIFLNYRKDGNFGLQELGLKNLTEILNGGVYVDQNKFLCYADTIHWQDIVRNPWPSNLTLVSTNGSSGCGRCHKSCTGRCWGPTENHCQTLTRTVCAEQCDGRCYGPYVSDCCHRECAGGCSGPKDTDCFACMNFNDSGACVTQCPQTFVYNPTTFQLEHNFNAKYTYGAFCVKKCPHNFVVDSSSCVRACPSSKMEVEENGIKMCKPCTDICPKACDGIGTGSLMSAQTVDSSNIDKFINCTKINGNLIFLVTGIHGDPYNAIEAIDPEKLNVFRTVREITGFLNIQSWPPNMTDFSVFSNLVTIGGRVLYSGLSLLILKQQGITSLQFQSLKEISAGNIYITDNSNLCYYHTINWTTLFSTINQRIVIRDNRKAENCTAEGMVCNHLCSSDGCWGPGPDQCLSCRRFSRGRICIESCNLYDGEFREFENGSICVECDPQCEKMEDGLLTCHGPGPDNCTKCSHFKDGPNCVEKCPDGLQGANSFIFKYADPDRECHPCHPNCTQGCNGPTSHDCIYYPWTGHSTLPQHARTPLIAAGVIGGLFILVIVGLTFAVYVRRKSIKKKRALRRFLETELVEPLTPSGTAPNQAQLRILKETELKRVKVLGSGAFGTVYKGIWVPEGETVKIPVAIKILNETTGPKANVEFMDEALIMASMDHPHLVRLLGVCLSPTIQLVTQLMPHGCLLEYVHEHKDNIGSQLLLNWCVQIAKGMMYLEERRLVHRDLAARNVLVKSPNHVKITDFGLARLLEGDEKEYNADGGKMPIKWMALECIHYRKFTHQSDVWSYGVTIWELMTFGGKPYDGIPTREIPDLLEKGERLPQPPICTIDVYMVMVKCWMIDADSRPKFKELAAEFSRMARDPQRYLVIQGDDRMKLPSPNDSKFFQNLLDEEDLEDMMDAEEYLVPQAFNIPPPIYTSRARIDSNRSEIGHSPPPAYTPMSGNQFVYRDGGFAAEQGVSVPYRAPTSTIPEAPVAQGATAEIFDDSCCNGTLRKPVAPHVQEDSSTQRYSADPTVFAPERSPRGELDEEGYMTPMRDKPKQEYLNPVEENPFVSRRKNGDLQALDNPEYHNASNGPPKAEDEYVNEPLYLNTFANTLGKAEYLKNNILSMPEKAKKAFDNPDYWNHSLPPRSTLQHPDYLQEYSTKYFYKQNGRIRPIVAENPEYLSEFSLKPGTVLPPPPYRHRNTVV

[7] = 10 µM, read-out: % of control at 10 µM

Row | SMILES | remaining activity at 1 µM [1] [%] | remaining activity at 10 µM [1, 7] [%] | remaining activity at 1 µM [2] [%] | remaining activity at 10 µM [2, 7] [%] | remaining activity at 1 µM [3] [%] | remaining activity at 10 µM ([3]; 10 µM, read-out: SNRK (% of control at 10 µM)) [%] | remaining activity at 1 µM [4] [%] | remaining activity at 10 µM [4, 7] [%] | remaining activity at 1 µM [5] [%] | remaining activity at 10 µM [5, 7] [%] | remaining activity at 1 µM [6] [%] | remaining activity at 10 µM [6, 7] [%]
1 | Nc1cc(C(F)(F)F)c(-c2cc(N3CCOCC3)nc(N3CCOCC3)n2)cn1 [Buparlisib] | 90 | 100 | 100 | 100 | 90 | 100 | 100 | 100 | 100 | 100 | 69 | 100
2 | Cn1c(=O)n(-c2ccc(C(C)(C)C#N)cc2)c2c3cc(-c4cnc5ccccc5c4)ccc3ncc21 [Dactolisib, 2-methyl-2-[4-(3-methyl-2-oxo-8-quinolin-3-yl-2,3-dihydroimidazo[4,5-c]quinolin-1-yl)-phenyl] propionitrile] | 100 | – | 96 | – | 71 | – | 80 | – | 81 | – | 100 | –
3 | COc1ncc(-c2ccc3nccc(-c4ccnnc4)c3c2)cc1NS(=O)(=O)c1ccc(F)cc1F [Omipalisib] | 97 | – | 100 | – | 88 | – | 100 | – | 100 | – | 100 | –
4 | FC(F)c1nc2ccccc2n1-c1nc(N2CCOCC2)nc(N2CCOCC2)n1 [ZSTK474, 2-(difluoromethyl)-1-[4,6-di(4-morpholinyl)-1,3,5-triazin-2-yl]-1H-benzimidazole] | 99 | – | 100 | – | 100 | – | 92 | – | 88 | – | 100 | –

Source: publication PMC5564600 (Oncotarget, 2017)
